These are literature values, as cited in publication PMC10055906 (Chemical Science, 2023).

By pKd is commonly meant −log10 of the Kd, conventionally taken in molar units.

pKd: −log10 of the molar value.

In this series the target is FGF2 (Homo sapiens, UniProt P09038). Particulars: read-out: KD (FGF2 affinity).
Chain of FGF2 (P09038 134-288): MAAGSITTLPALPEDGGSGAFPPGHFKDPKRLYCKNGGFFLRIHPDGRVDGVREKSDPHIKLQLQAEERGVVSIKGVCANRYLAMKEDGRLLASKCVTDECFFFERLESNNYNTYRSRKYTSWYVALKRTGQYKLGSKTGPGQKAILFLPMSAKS

Regarding IdoA-GlcNS(6S)-IdoA(2S)-GlcNS(6S), the pKd is 5.92.
